Assay results as given in paper PMC8003627, “Synthesis and Biological Evaluation of 2,3,4-Triaryl-1,2,4-oxadiazol-5-ones as p38 MAPK Inhibitors” (Molecules, 2021).

These compounds were tested against p38α MAP kinase (Homo sapiens, UniProt Q16539) (assay: p38α MAP kinase inhibition assay (non radioactive immunosorbent enzyme assay, ATF-2 phosphorylation; Ultra Glo Promega kit)). Details: mean of four separated experiments; compounds assayed at 10^−4 to 10^−8 M.
Assay type: biochemical

Sequence of p38α MAP kinase (Q16539 whole entry): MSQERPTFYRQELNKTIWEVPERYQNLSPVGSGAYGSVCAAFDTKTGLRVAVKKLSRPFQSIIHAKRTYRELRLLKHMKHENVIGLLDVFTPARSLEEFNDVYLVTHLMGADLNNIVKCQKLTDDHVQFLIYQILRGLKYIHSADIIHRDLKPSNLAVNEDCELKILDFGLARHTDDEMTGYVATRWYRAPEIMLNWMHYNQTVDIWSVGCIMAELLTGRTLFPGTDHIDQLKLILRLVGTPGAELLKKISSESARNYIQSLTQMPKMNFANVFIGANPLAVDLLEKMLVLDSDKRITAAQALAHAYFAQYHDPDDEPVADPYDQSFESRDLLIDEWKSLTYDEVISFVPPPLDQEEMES

`O=C1ON(c2ccccc2)C(c2ccncc2)N1c1ccc(C(F)(F)F)cc1` (centres unmarked) [Compound 3c, 2-Phenyl-4-(4-trifluoromethyl)-3-(pyridin-4-yl)-1,2,4-oxadiazolidin-5-one] and `O=C1ON(c2ccccc2)C(c2ccncc2)N1c1ccc(Cl)cc1` (centres unmarked) [Compound 3d, 2-Phenyl-4-(4-chlorophenyl)-3-(pyridin-4-yl)-1,2,4-oxadiazolidin-5-one] are within 1.5-fold of each other in IC50: 2 µM for the first, 1.5 µM for the second.

First: O=C1ON(Cc2ccccc2)C(c2ccncc2)N1c1ccc(F)cc1 (centres unmarked) [Compound 3e, 2-Benzyl-4-(4-fluorophenyl)-3-(pyridin-4-yl)-1,2,4-oxadiazolidin-5-one]
Second: O=C1ON(Cc2ccccc2)C(c2ccncc2)N1c1ccc([N+](=O)[O-])cc1 (centres unmarked) [Compound 3f, 2-Benzyl-4-(4-nitrophenyl)-3-(pyridin-4-yl)-1,2,4-oxadiazolidin-5-one]
The IC50 of the first is 1.9-fold lower: 0.08 µM for the first, 0.15 µM for the second. The first is the more potent here.

Going from `O=C1ON(Cc2ccccc2)C(c2ccccc2)N1c1ccc(F)cc1` (centres unmarked) [Compound 3g, 2-Benzyl-4-(4-fluorophenyl)-3-phenyl-1,2,4-oxadiazolidin-5-one] to `O=C1ON(Cc2ccccc2)C(c2ccccc2)N1c1ccc([N+](=O)[O-])cc1` (centres unmarked) [Compound 3h, 2-Benzyl-4-(4-nitrophenyl)-3-phenyl-1,2,4-oxadiazolidin-5-one], the IC50 rises from 15.1 µM to 60.5 µM (4-fold).

`CC1N(Cc2ccccc2)OC(=O)N1c1ccc(F)cc1` (centres unmarked) [Compound 3i, 2-Benzyl-4-(4-fluorophenyl)-3-methyl-1,2,4-oxadiazolidin-5-one] and `CC1N(c2ccccc2)OC(=O)N1c1ccc(F)cc1` (centres unmarked) [Compound 3l, 2-Phenyl-4-(4-fluorophenyl)-3-methyl-1,2,4-oxadiazolidin-5-one] are within 1.5-fold of each other in IC50: 18.5 µM for the first, 22.8 µM for the second.
